Legend:
Gli1 = test: Immunofluorescence staining of Gli1 in 293T cells transfected with Gli1; type: cell-based; settings: 293T cells transfected with Gli1, 1 µM, 24 h
Experimental: Cells were fixed with 4% paraformaldehyde (PFA) for 15 min, permeabilized with 0.3% Triton X-100 in PBS for 10 min, and blocked with 1% BSA in PBS for 2 h. After that, the cells were further incubated with rabbit anti-Gli1 antibody (#101156-T10, SinoBiological) at 4 °C overnight. Then cells were stained with the Alexa Fluor®594-conjugated Goat Anti-rabbit IgG secondary antibody (red) for 1.5 h. Nuclei were counterstained with DAPI (blue). The immunofluorescent images of cells were captured under a fluorescence microscope (Leica).

[1] = test system: SmoA1 (Smo W539L) medulloblastoma tumor; test: SmoA1 medulloblastoma allograft in nude mice; type: in vivo, mouse
Description: For in vivo SmoA1 MB allograft studies, SmoA1 spontaneous MB tumors were obtained from ND2:SmoA1 transgenic mice as previously described. Male nude mice (4 to 5 weeks of age) were purchased from Shanghai Lingchang Biotechnology Co. (Shanghai, China). Spontaneous tumors were harvested and subcutaneously allografted into nude mice. When the tumor volumes reached approximately 2000 mm^3, they were harvested and further subcutaneously allografted into nude mice. When the tumor volumes reached about 150 to 200 mm^3, the tumor-bearing mice were randomly assigned into vehicle and treatment groups. Mice were weighed every 3 days. Tumor size was measured once every 3 days using microcaliper. Tumor volume (V) was determined using the following formula: V = (L×W^2) ×0.5, where L is length, and W is width in mm. Tumor tissues were harvested 6 h after the last dosage to examining Gli1 mRNA expression and protein levels. SIAIS361034 for i.p. administration was formulated in 0.5% sodium carboxymethyl cellulose (CMC-Na). All in vivo studies above were approved by and conformed to the policies and regulations of the Animal Care and Use Committee of Fudan University, China.

[2] = test system: Hh pathway (Gli-luciferase) in light II cells; test: Dual luciferase reporter assay, Gli-luciferase provoked by SAG in light II cells; type: cell-based; settings: SAG 100 nM, 36 h, read-out: IC50 value inhibiting the Gli-luciferase activity provoked by SAG
Experimental: Cells seeded in 96-well plates were treated with various treatments as indicated. The luciferase activity in the cell lysates was measured using Dual-Luciferase Reporter Assay System (Promega, Madison, WI, USA) according to the manufacturer's instructions in a luminometer (Molecular Devices, Sunnyvale, CA). The firefly luciferase values were normalized to Renilla values.

Bcl-2 = Bcl-2 (Homo sapiens, UniProt P10415); test: Competitive fluorescence polarization assay, Bcl-2 / FAM-Bax; type: binding; settings: Bcl-2 100 nM, FAM-Bax 5 nM
Bcl-2, sequence (P10415 whole entry, species assumed): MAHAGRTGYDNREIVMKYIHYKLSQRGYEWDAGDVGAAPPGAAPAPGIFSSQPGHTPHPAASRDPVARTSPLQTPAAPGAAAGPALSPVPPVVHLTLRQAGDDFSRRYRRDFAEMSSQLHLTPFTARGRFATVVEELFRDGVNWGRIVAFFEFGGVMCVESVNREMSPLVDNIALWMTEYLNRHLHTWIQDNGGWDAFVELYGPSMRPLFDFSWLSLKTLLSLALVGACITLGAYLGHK
Experimental: Competitive fluorescence polarization assays were carried out in black-walled plates in assay buffer (20 mM Na2HPO4 ·12H2O, 20 mM NaH2PO4·12H2O, 1 mM EDTA, 50 mM NaCl, 0.05% PF-68). The use of protein/peptide probe pairs was as follows: Bcl-xL (5 nM) and FAM-Bad (5 nM), Bcl-2 (100 nM) and FAM-Bax (5 nM), Mcl-1 (100 nM) and FAM-Bim (5 nM). Assay buffer, proteins, drugs, and peptides were added to the assay plates sequentially. The assay plates were slightly shaken for 3 min and incubated for 30 min at room temperature. The fluorescence polarization was measured on a Synergy 2 reader (BioTek).

[3] = test system: IKZF1, IKZF3, SALL4, GSPT1; test: Western blot of CRBN neo-substrates in NIH-3T3 cells; type: cell-based; settings: 24 h
Experimental: Cells were lysed in cell lysis buffer (50 mM Tris pH 8.0, 150 mM NaCl, 10% glycerol, 1 mM EDTA, 50 mM NaF, and 0.1% NP-40) supplemented with protease and phosphatase inhibitors. Total protein extracts of tissues were generated in radioimmunoprecipitation (RIPA) assay lysis buffer containing complete protease and phosphatase inhibitor cocktail. Protein content was quantified using the Pierce BCA Protein Assay Kit (#23225, Thermo Fisher Scientific). The proteins were separated by SDS-PAGE, electrophoretically transferred to polyvinylidene difluoride (PVDF) blotting membranes (#LC2002, Thermo Fisher Scientific), and subjected to routine immunoblot analysis with primary antibodies as follows: anti-Bcl-2 (#15071), anti-Mcl-1 (#94296), anti-VHL (#68547), anti-CRBN (#71810), and anti-Sufu (#2522) were obtained from Cell Signaling Technology (Danvers, Massachusetts, USA); anti-Bcl-xL (#ab32370), anti-Gli1 (#ab134906), and anti-Smoothened (#ab236465) were obtained from Abcam (Cambridge, CB2 0AX, UK); anti-GAPDH (#60004-1-Ig) and anti-β-tubulin (#10094-1-AP) were purchased from Proteintech Group, Inc. (Rosemont, IL 60018, USA). The results were quantified by densitometry using ImageJ software (NIH). […]
hydrochloride; DMAP = 4-dimethylaminopyridine; TFA = trifluoroacetic acid; DMF = N,N-dimethylformamide. […]

Bcl-2 and Mcl-1 = test: Western blot of Bcl-2 and Mcl-1 in NIH-3T3 cells; type: cell-based; settings: 1 µM
Experimental: Cells were lysed in cell lysis buffer (50 mM Tris pH 8.0, 150 mM NaCl, 10% glycerol, 1 mM EDTA, 50 mM NaF, and 0.1% NP-40) supplemented with protease and phosphatase inhibitors. Total protein extracts of tissues were generated in radioimmunoprecipitation (RIPA) assay lysis buffer containing complete protease and phosphatase inhibitor cocktail. Protein content was quantified using the Pierce BCA Protein Assay Kit (#23225, Thermo Fisher Scientific). The proteins were separated by SDS-PAGE, electrophoretically transferred to polyvinylidene difluoride (PVDF) blotting membranes (#LC2002, Thermo Fisher Scientific), and subjected to routine immunoblot analysis with primary antibodies as follows: anti-Bcl-2 (#15071), anti-Mcl-1 (#94296), anti-VHL (#68547), anti-CRBN (#71810), and anti-Sufu (#2522) were obtained from Cell Signaling Technology (Danvers, Massachusetts, USA); anti-Bcl-xL (#ab32370), anti-Gli1 (#ab134906), and anti-Smoothened (#ab236465) were obtained from Abcam (Cambridge, CB2 0AX, UK); anti-GAPDH (#60004-1-Ig) and anti-β-tubulin (#10094-1-AP) were purchased from Proteintech Group, Inc. (Rosemont, IL 60018, USA). The results were quantified by densitometry using ImageJ software (NIH).

SMILES: CC1(C)CCC(c2ccc(Cl)cc2)=C(CN2CCN(c3ccc(C(=O)NS(=O)(=O)c4ccc(NCCCN5CCN(CCCC#Cc6cccc7c6CN(C6CCC(=O)NC6=O)C7=O)CC5)c(S(=O)(=O)C(F)(F)F)c4)cc3)CC2)C1 (stereo not drawn) [SIAIS361034]
- translocation of Gli1 from cytoplasm into nucleus (Gli1): suppressed translocation of Gli1 from cytoplasm into nucleus
- tumor inhibition ratio / mean tumor growth inhibition (TGI) ratio ([1]; nude mice, SIAIS361034 50 mg/kg, day 15 (termination of the experiment)): 93.56%
- growth of SmoA1 tumors ([1]; nude mice, SIAIS361034 50 mg/kg, GDC-0449 50 mg/kg p.o.): remarkably suppressed
- expression of Gli1 mRNA in tumor tissues ([1]; tumors harvested 6 h after the last dosage, RT-qPCR): significantly inhibited
- Bcl-xL and Gli1 protein in harvested tumors ([1]; western blot at the end of the experiment): inducing Bcl-xL degradation and repressing Gli1 expression
- IC50 [2]: 120 nM
- Ki (Bcl-2): 15.1 nM
- abundance of CRBN neo-substrates IKZF1, IKZF3, SALL4, GSPT1 [3]: did not affect abundance
- levels of Bcl-2 and Mcl-1 (Bcl-2 and Mcl-1): did not change the levels of Bcl-2 and Mcl-1
